Measurements published in patent US9682060B2, “Small molecules that induce intrinsic pathway apoptosis” (The Board of Trustees of the University of Illinois, priority 2015, dated 2017).
Entries after “also recorded” stand apart in the source; their conditions may differ.

Legend:
Jurkat cells = test: AV/PI assay in Jurkat cell lines (WT, caspase-8 deletion, FADD deletion, Bcl-2 upregulation); format: cell-based, Human; settings: 10 μM, 2 hours
[1] = system: isolated mitochondria (U-937 cells); test: In vitro cytochrome c release from isolated mitochondria; format: biochemical, Human; settings: respiring and non-respiring conditions, 30 min, Western blot
Method: In Vitro Cytochrome c Release from Isolated Mitochondria.
U-937 cells (120×10^6) were washed twice in PBS and resuspended in 800 μL ice-cold lysis buffer (50 mM HEPES, 5 mM DTT, 5 mM PMSF, 25 mM MgCl2, protease cocktail inhibitor, pH 7.5) and the cells were passed through a 26 gauge needle 26 times using a 1 mL syringe until >95% cells were lysed as determined by trypan blue. Isolation buffer (0.25 M sucrose in lysis buffer pH 7.5) was added to the lysed cells (2.4 mL) and mixed by inversion. Debris was removed by centrifugation (500×g. 10 min at 4° C.) and the mitochondria in the supernatant were pelleted by centrifugation (10000×g, 5 min at 4° C.). The mitochondrial pellet was resuspended in washing buffer (2 mL of 50 mM HEPES, 250 mM KCl, 25 mM EDTA, pH 7.5) and incubated on ice for 2 min and centrifuged (12500×g, 5 min). The mitochondrial pellet was resuspended in either non-respiration (300 μL of 50 mM HEPES, 5 mM DTT, 5 mM PMSF, 25 mM MgCl2, protease inhibitor, 250 mM KCl, 25 mM EDTA, pH 7.5) or respiration buffer (300 μL of 50 mM HEPES, […], 5 mM ATP, 0.4 mM ADP, 25 mM sodium succinate, 10 mM potassium phosphate dibasic, pH 7.5). […]

U-937 cells [2] = format: cell-based, Human; settings: 20 minute treatment, dihydroethidium, flow cytometry
Method: Measurement of Cellular ROS Production.
U-937 cells (1 mL of 5×10^5 cells/mL) in Hank's buffered salt solution (HBSS) containing 5 mM glucose were treated with DMSO, 2 or 10 μM Raptinal, 10 μM thapsigargin, 100 μM etoposide (1% DMSO final) and incubated in the presence of 5 μM dihydroethidium a 37° C., 5% CO2 incubator for 20 minutes. […]. The levels of ethidium were assessed by flow cytometry. Live cells were analyzed based on gating on the forward and side scatter properties and the geometric mean of ethidium staining was determined using the software FCS Express.

recombinant procaspase-3 = biological target: T1, recombinant procaspase-3 (Homo sapiens, UniProt P42574); test: In vitro activation of procaspase-3; format: biochemical; settings: up to 100 μM; 250 nM procaspase-3; Ac-DEVD-AFC cleavage
T1 construct: His tag (inferred from the nickel-NTA purification); made in house
Method: In Vitro Activation of Procaspase-3.
Procaspase-3 was expressed as described previously and purified with Qiagen nickel-NTA resin (Hsu et al., 2012). Increasing concentrations of Raptinal (0, 10, 25, 50 and 100 μM) and 25 μM 1541B were assessed for their capacity to enhance the activity of procaspase-3 over time. 250 nM procaspase-3 was treated with compounds in caspase activity buffer (50 mM HEPES, 50 mM KCl, 0.1 mM EDTA, 10 mM DTT, 0.01% Triton X-100, pH 7.4) and activity was assessed by cleavage of Ac-DEVD-AFC (50 μM) at designated time points.

U-937 cells [3] = test: Immunoblotting of caspase activation and PARP-1 cleavage; format: cell-based, Human; settings: 10 μM
Method: U-937 cells (3×10^6 cells in 2 mL RPMI) or SKW 6.4 cells (5×10^6 cells in 2 mL RPMI) were treated with compound (1% final DMSO v/v) for the appropriate period of time. After centrifugation and washing with PBS, cells were lysed with RIPA lysis buffer containing protease cocktail inhibitor III (Calbiochem) and cell debris removed by centrifugation (16000×g 5 min). The lysate concentrations were normalized after determination of protein concentration by the Bradford assay and whole cell lysate (40-60 μg) was resolved by 4-20% gradient SDS-PAGE gel electrophoresis at 120 V for 70 min after which proteins were transferred onto PVDF membranes (60 V for 2 hours) and blocked in 5% BSA or fat-free milk in TBST (as per primary antibody manufacturer's instructions) overnight at 4° C. The membranes were blotted for molecules of interest with primary antibody (1:1000 in 5% BSA or milk in TBST) overnight at 4° C. The bound primary antibodies were detected using appropriate secondary HRP conjugated antibodies (1:5000 in TBST) for 1 hour at room temperature and visualized by ECL autoradiography or with an Image Quant LAS 4010. The membranes were stripped in acidic methanol, blocked and re-probed as necessary.
Induction of Necroptosis and Observation of Phospho-MLKL by Immunoblot.
[…]. Cells were then treated with TNFα (10 ng/ml) in the presence of cycloheximide (20 μg/ml) for (1% final DMSO v/v) for the appropriate period of time. After centrifugation and washing with PBS, cells were lysed with RIPA lysis buffer containing protease cocktail inhibitor III (Calbiochem) and Phosphatase Inhibitor IV (BioVision). Samples were further processed for immunblot analysis as described above.

[4] = system: cancer cell lines (HL-60, SK-MEL-5, U-937); test: Initial screens against cancer cell lines; format: cell-based, Human

T1 sequence (P42574 whole entry): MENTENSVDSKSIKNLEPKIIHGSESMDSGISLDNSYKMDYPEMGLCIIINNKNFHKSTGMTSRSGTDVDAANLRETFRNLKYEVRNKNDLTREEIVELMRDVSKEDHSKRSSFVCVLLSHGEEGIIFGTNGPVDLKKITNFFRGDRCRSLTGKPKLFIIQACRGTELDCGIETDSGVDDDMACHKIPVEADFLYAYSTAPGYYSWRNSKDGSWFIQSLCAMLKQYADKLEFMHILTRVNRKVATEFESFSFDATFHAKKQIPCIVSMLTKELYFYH

For O=CC1(C2(C=O)c3ccccc3-c3ccccc32)c2ccccc2-c2ccccc21 [Raptinal, [9,9′]bifluorenyl-9,9′-dicarbaldehyde], the “sensitivity of Jurkat Bcl-2 overexpressing versus wild type cells” value (Jurkat cells) was “less susceptible; also recorded: partial resistance”, the “sensitivity of Jurkat caspase-8−/− versus wild type cells” value (Jurkat cells) was “equally susceptible; also recorded: equally as sensitive” and the “cytochrome c release from isolated mitochondria” value [1] was “does not induce cytochrome c release; also recorded: did not directly induce cytochrome c release”. The “production of reactive oxygen species (superoxide anion radicals)” value (U-937 cells [2]) was “rapid accumulation of superoxide anion radicals; also recorded: observed”, the “direct activation of recombinant procaspase-3 (enzymatic activity)” value (recombinant procaspase-3) was “does not directly activate; also recorded: no increase in enzymatic activity” and the “time of activation of initiator caspase-9” value (U-937 cells [3]) was 20 min. The “time to complete cleavage of procaspase-9, procaspase-8 and procaspase-3” value (U-937 cells [3]) was no more than 45 min, the “cleavage of procaspase-1 (pyroptosis/pyronecrosis)” value (U-937 cells [3]; Western blot) was “neither” and the “activation of procaspase-3 to caspase-3 (immunoblot)” value (U-937 cells [3]; one hour treatment) was “complete activation”. For the same compound, the “cleavage of PARP-1 (116 to 89 kDa form)” value (U-937 cells [3]; one hour, versus the other toxins) was “Significantly more abundant cleavage”, the IC50 ([4]; Homo sapiens, HL-60, SK-MEL-5, U-937, 24 hour assays) was 150 to 700 nM and the “cell death after short treatment and washout” value ([4]; cancer cells treated 1 hour, extensive washing to remove compound, read at 24-hour mark) was “significant cell death”.
